Data as given in ChEMBL document CHEMBL1156714, “Microwave induced synthesis of novel 8,9-dihydro-7H-pyrimido[4,5-b][1,4]diazepines as potential antitumor agents” (2008).
The source made the active and inactive calls. The rule behind the calls is not given here.

Legend:
NCI-60 = experiment: Growth inhibition of human NCI-60 cells at 1.0 uM; assay type: functional, cell-based
BT-549 = experiment: Growth inhibition of human BT549 cells after 48 hrs by SRB assay; assay type: functional; conditions: BT-549, 48 h
RXF 393 [1] = experiment: Growth inhibition of human RXF393 cells after 48 hrs by SRB assay; assay type: functional; conditions: RXF 393, 48 h
IGROV-1 = experiment: Growth inhibition of human IGROV1 cells after 48 hrs by SRB assay; assay type: functional; conditions: IGROV-1, 48 h; for CC50: read-out: LC50 (the source's name)
HCT-116 = experiment: Growth inhibition of human HCT116 cells after 48 hrs by SRB assay; assay type: functional; conditions: HCT-116, 48 h; for CC50: read-out: LC50 (the source's name)
RPMI-8226 = experiment: Growth inhibition of human RPMI8226 cells after 48 hrs by SRB assay; assay type: functional; conditions: RPMI-8226, 48 h; for CC50: read-out: LC50 (the source's name)
UO-31 = experiment: Growth inhibition of human UO31 cells after 48 hrs by SRB assay; assay type: functional; conditions: UO-31, 48 h; for CC50: read-out: LC50 (the source's name)
[2] = Growth inhibition of human HL60(TB) cells after 48 hrs by SRB assay; assay type: functional, HL-60(TB)
SR = experiment: Growth inhibition of human SR cells after 48 hrs by SRB assay; assay type: functional
Hs-578T = experiment: Growth inhibition of human HS578T cells after 48 hrs by SRB assay; assay type: functional; conditions: for CC50: read-out: LC50 (the source's name)
NCI-H522 = experiment: Growth inhibition of human NCI-H522 cells after 48 hrs by SRB assay; assay type: functional; conditions: NCI-H522, 48 h; for CC50: read-out: LC50 (the source's name)
HCT-15 = experiment: Growth inhibition of human HCT15 cells after 48 hrs by SRB assay; assay type: functional; conditions: HCT-15, 48 h; for CC50: read-out: LC50 (the source's name)
DU-145 = experiment: Growth inhibition of human DU145 cells after 48 hrs by SRB assay; assay type: functional; conditions: DU-145, 48 h
PC-3 = experiment: Growth inhibition of human PC3 cells after 48 hrs by SRB assay; assay type: functional; conditions: PC-3, 48 h
NCI-H322M = experiment: Growth inhibition of human NCI-H322M cells after 48 hrs by SRB assay; assay type: functional
[3] = Growth inhibition of human […] cells after 48 hrs by SRB assay; assay type: functional
SF-268 = experiment: Growth inhibition of human SF268 cells after 48 hrs by SRB assay; assay type: functional; conditions: SF-268, 48 h
SNB-75 = experiment: Growth inhibition of human SNB75 cells after 48 hrs by SRB assay; assay type: functional; conditions: SNB-75, 48 h
COLO 205 = experiment: Growth inhibition of human COLO205 cells after 48 hrs by SRB assay; assay type: functional; conditions: COLO 205, 48 h
KM12 = experiment: Growth inhibition of human KM12 cells after 48 hrs by SRB assay; assay type: functional; conditions: KM12, 48 h
MDA-MB-468 = experiment: Growth inhibition of human MDA-MB-468 cells after 48 hrs by SRB assay; assay type: functional; conditions: MDA-MB-468, 48 h
ACHN = experiment: Growth inhibition of human ACHN cells after 48 hrs by SRB assay; assay type: functional
NCI/ADR-RES = experiment: Growth inhibition of human NCI/ADR-RES cells after 48 hrs by SRB assay; assay type: functional
TK-10 = experiment: Growth inhibition of human TK10 cells after 48 hrs by SRB assay; assay type: functional; conditions: TK-10, 48 h
LOX IMVI = experiment: Growth inhibition of human LOX IMVI cells after 48 hrs by SRB assay; assay type: functional
HT-29 = experiment: Growth inhibition of human HT29 cells after 48 hrs by SRB assay; assay type: functional; conditions: HT-29, 48 h
MCF7 = experiment: Growth inhibition of human MCF7 cells after 48 hrs by SRB assay; assay type: functional; conditions: MCF7, 48 h
A498 = experiment: Growth inhibition of human A498 cells after 48 hrs by SRB assay; assay type: functional; conditions: A498, 48 h
U-251 = experiment: Growth inhibition of human U251 cells after 48 hrs by SRB assay; assay type: functional; conditions: U-251, 48 h
[4] = Growth inhibition of human OVACR4 cells after 48 hrs by SRB assay; assay type: functional
MDA-MB-231 = experiment: Growth inhibition of human MDA-MB-231 cells after 48 hrs by SRB assay; assay type: functional; conditions: MDA-MB-231, 48 h
A549 = experiment: Growth inhibition of human A549 cells after 48 hrs by SRB assay; assay type: functional; conditions: A549, 48 h
HCC 2998 = experiment: Growth inhibition of human HCC2998 cells after 48 hrs by SRB assay; assay type: functional; conditions: HCC 2998, 48 h
MOLT-4 = experiment: Growth inhibition of human MOLT4 cells after 48 hrs by SRB assay; assay type: functional; conditions: MOLT-4, 48 h
K562 = experiment: Growth inhibition of human K562 cells after 48 hrs by SRB assay; assay type: functional; conditions: K562, 48 h
SW-620 = experiment: Growth inhibition of human SW620 cells after 48 hrs by SRB assay; assay type: functional; conditions: SW-620, 48 h
HOP-62 = experiment: Growth inhibition of human HOP62 cells after 48 hrs by SRB assay; assay type: functional; conditions: HOP-62, 48 h
RXF 393 [5] = experiment: Growth inhibition of human […] cells after 48 hrs by SRB assay; assay type: functional; conditions: RXF 393, 48 h
[6] = Growth inhibition of human OVACR3 cells after 48 hrs by SRB assay; assay type: functional
[7] = Growth inhibition of human OVACR5 cells after 48 hrs by SRB assay; assay type: functional
SF-295 = experiment: Growth inhibition of human SF295 cells after 48 hrs by SRB assay; assay type: functional; conditions: SF-295, 48 h
[8] = read-out: LC50 (the source's name)

SMILES: Nc1ncnc2c1N=C(c1ccc3c(c1)OCO3)CC(c1ccc([N+](=O)[O-])cc1)N2 (racemic)
- Activity (NCI-60): Active
- GI50 (BT-549): 1.68 µM
- CC50 (BT-549; [8]): > 100 µM
- GI50 (RXF 393 [1]): 7.19 µM
- CC50 (RXF 393 [1]; [8]): > 100 µM
- GI50 (IGROV-1): 0.068 µM
- CC50 (IGROV-1): 25.5 µM
- GI50 (HCT-116): 18.2 µM
- CC50 (HCT-116): > 100 µM
- GI50 (RPMI-8226): 0.19 µM
- CC50 (RPMI-8226): > 100 µM
- GI50 (UO-31): 18.1 µM
- CC50 (UO-31): > 100 µM
- LC100 [2]: >100 µM
- GI50 ([2]; Homo sapiens, HL-60, 48 h): 13.1 µM
- GI50 (SR): 2.37 µM
- LC50 (concentration killing 50% of cells) (SR): > 100 µM
- GI50 (Hs-578T): 9.18 µM
- CC50 (Hs-578T): > 100 µM
- GI50 (NCI-H522): 6.78 µM
- CC50 (NCI-H522): > 100 µM
- GI50 (HCT-15): 9.55 µM
- CC50 (HCT-15): > 100 µM

SMILES: Nc1ncnc2c1N=C(c1ccc([N+](=O)[O-])cc1)CC(c1ccc3c(c1)OCO3)N2 (racemic)
- Activity (NCI-60): inactive

SMILES: COc1ccc(C2CC(c3ccc4c(c3)OCO4)=Nc3c(N)ncnc3N2)cc1 (racemic)
- Activity (NCI-60): inactive

SMILES: Nc1ncnc2c1N=C(c1ccc3c(c1)OCO3)CC(c1ccc(Cl)cc1)N2 (racemic)
- Activity (NCI-60): Active
- GI50 (DU-145): 16.8 µM
- CC50 (DU-145; [8]): 65.9 µM
- GI50 (PC-3): 9.06 µM
- CC50 (PC-3; [8]): 50.8 µM
- GI50 (NCI-H322M): 16.9 µM
- CC50 (NCI-H322M; [8]): > 100 µM
- GI50 [3]: 4.66 µM
- CC50 [3, 8]: > 100 µM
- GI50 (SF-268): 8.52 µM
- LC50 (50% lethal concentration) (SF-268): > 100 µM
- GI50 (SNB-75): 5.22 µM
- CC50 (SNB-75; [8]): > 100 µM
- GI50 (COLO 205): 15 µM
- CC50 (COLO 205; [8]): > 100 µM
- GI50 (IGROV-1): 0.35 µM
- CC50 (IGROV-1): 42.8 µM
- GI50 (KM12): 2.03 µM
- CC50 (KM12; [8]): > 100 µM
- GI50 (MDA-MB-468): 10.1 µM
- CC50 (MDA-MB-468; [8]): > 100 µM
- GI50 (ACHN): 8.25 µM
- LC50 (lethal concentration 50%) (ACHN): > 100 µM
- GI50 (NCI/ADR-RES): 5.35 µM
- CC50 (NCI/ADR-RES; [8]): > 100 µM
- GI50 (HCT-116): 10.7 µM
- CC50 (HCT-116): 47.5 µM
- GI50 (TK-10): 8.23 µM
- CC50 (TK-10; [8]): > 100 µM
- GI50 (LOX IMVI): 10.1 µM
- CC50 (LOX IMVI; [8]): > 100 µM
- GI50 (RPMI-8226): 1.5 µM
- CC50 (RPMI-8226): > 100 µM
- GI50 (HT-29): 3.81 µM
- CC50 (HT-29; [8]): > 100 µM
- GI50 (MCF7): 3.61 µM
- LC50 (MCF7): > 100 µM
- GI50 (A498): 5.94 µM
- LC50 (A498): > 100 µM
- GI50 (UO-31): 7.48 µM
- CC50 (UO-31): > 100 µM
- GI50 (U-251): 6.19 µM
- CC50 (U-251; [8]): 78.9 µM
- GI50 [4]: 18.3 µM
- LC50 [4]: > 100 µM
- GI50 (MDA-MB-231): 2.7 µM
- CC50 (MDA-MB-231; [8]): 55.6 µM
- GI50 ([2]; Homo sapiens, HL-60, 48 h): 5.37 µM
- CC50 ([2]; Homo sapiens, HL-60, 48 h, read-out: LC50 (the source's name)): > 100 µM
- GI50 (A549): 11.6 µM
- LC50 (A549): 78.3 µM
- GI50 (HCC 2998): 5.88 µM
- LC50 (concentration killing 50% of cells) (HCC 2998): > 100 µM
- GI50 (MOLT-4): 5.85 µM
- CC50 (MOLT-4; [8]): > 100 µM
- GI50 (Hs-578T): 1.07 µM
- CC50 (Hs-578T): > 100 µM
- GI50 (K562): 4.27 µM
- LC50 (K562): > 100 µM
- GI50 (NCI-H522): 2.37 µM
- CC50 (NCI-H522): > 100 µM
- GI50 (SW-620): 4.91 µM
- CC50 (SW-620; [8]): > 100 µM
- GI50 (HOP-62): 16.6 µM
- CC50 (HOP-62; [8]): > 100 µM
- GI50 (RXF 393 [5]): 2.51 µM
- CC50 (RXF 393 [5]; [8]): 59.3 µM
- GI50 [6]: 3.71 µM
- LC50 [6]: 83 µM
- GI50 [7]: 18.3 µM
- CC50 [7, 8]: > 100 µM
- GI50 (HCT-15): 3.14 µM
- CC50 (HCT-15): 55.2 µM
- GI50 (SF-295): 14.7 µM
- LC50 (SF-295): > 100 µM

SMILES: COc1ccc(C2=Nc3c(N)ncnc3NC(c3ccc4c(c3)OCO4)C2)cc1 (racemic)
- Activity (NCI-60): inactive

SMILES: Nc1ncnc2c1N=C(c1ccc(Cl)cc1)CC(c1ccc3c(c1)OCO3)N2 (racemic)
- Activity (NCI-60): inactive
